Reference: PMC5623054, “Cloning and Functional Characterization of Octβ2-Receptor and Tyr1-Receptor in the Chagas Disease Vector, Rhodnius prolixus” (Frontiers in Physiology, 2017)

Tests used:
Assay type in all cases: cell-based
RhoprTyr1-R [1] = target: T1, RhoprTyr1-R (Rhodnius prolixus, UniProt A0A291L8I9); assay: aequorin bioluminescence Ca2+ assay in transfected HEK293/CNG cells, dose-response (agonist)
T1 construct: full ORF (455 amino acids; GenBank MF377527) transiently expressed in HEK293/CNG cells
T1 sequence (A0A291L8I9 1-455): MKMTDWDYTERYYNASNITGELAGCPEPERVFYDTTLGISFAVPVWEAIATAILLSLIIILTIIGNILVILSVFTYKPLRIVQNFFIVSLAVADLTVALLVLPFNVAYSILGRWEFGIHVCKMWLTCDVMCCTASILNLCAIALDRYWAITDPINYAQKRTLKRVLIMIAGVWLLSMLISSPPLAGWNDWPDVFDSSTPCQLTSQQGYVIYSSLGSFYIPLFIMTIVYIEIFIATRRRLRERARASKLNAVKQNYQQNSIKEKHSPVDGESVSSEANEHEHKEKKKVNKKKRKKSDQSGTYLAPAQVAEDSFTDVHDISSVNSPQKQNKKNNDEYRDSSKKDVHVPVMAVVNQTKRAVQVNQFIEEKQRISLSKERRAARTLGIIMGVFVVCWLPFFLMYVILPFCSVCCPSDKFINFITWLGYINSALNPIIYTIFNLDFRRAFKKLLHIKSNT

RhoprOctβ2-R [2] = target: T2, RhoprOctβ2-R (Rhodnius prolixus, UniProt A0A291L8J3); assay: aequorin bioluminescence Ca2+ assay in transfected HEK293/CNG cells, dose-response (partial agonist)
T2 construct: full ORF (447 amino acids; GenBank MF377526) transiently expressed in HEK293/CNG cells
T2 sequence (A0A291L8J3 1-447): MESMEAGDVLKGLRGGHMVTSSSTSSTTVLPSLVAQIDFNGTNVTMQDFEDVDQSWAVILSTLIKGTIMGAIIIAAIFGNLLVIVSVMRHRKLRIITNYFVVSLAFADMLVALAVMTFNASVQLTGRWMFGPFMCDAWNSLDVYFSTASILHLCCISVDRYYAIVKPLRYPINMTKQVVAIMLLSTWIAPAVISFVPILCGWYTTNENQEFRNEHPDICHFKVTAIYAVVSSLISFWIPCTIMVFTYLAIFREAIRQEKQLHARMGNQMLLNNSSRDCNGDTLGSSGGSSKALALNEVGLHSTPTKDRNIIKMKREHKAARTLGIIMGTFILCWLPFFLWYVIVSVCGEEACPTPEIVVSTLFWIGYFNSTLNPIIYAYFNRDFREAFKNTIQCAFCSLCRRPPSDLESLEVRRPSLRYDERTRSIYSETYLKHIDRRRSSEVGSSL

RhoprOctβ2-R [3] = target: T2, RhoprOctβ2-R; assay: partial antagonism of octopamine-induced aequorin luminescence in HEK293/CNG cells, single dose […]
RhoprTyr1-R [4] = target: T1, RhoprTyr1-R; assay: antagonism of tyramine-induced aequorin luminescence in HEK293/CNG cells, single dose […]
RhoprOctβ2-R [5] = target: T2, RhoprOctβ2-R; assay: aequorin bioluminescence Ca2+ assay in transfected HEK293/CNG cells, dose-response (full agonist)
RhoprOctβ2-R [6] = target: T2, RhoprOctβ2-R; assay: antagonism of octopamine-induced aequorin luminescence in HEK293/CNG cells, single dose […]

NCCc1ccc(O)cc1 [TA, tyramine]
EC50 (RhoprTyr1-R [1]): 0.0517 µM | EC50 (RhoprOctβ2-R [2]): 3.85 µM

CCN(CC)CCNC(=O)c1cc(Cl)c(N)cc1OC [metoclopramide]
partial antagonism of octopamine-induced aequorin luminescence in HEK293/CNG cel (RhoprOctβ2-R [3]): RhoprOctβ2-R was antagonized by phentolamine > gramine > metoclopramide

CC(COc1ccccc1)N(CCCl)Cc1ccccc1 (stereo not shown) [phenoxybenzamine]
antagonism of tyramine-induced aequorin luminescence in HEK293/CNG cells, single (RhoprTyr1-R [4]): notably yohimbine and phenoxybenzamine, reduced the tyramine-induced activation of the RhoprTyr1-R

NCC(O)c1ccc(O)cc1 (stereo not shown) [OA, octopamine]
EC50 (RhoprTyr1-R [1]): 6.88 µM | EC50 (RhoprOctβ2-R [5]): 0.367 µM

CN(C)Cc1c[nH]c2ccccc12 [gramine]
antagonism of octopamine-induced aequorin luminescence in HEK293/CNG cells, sing (RhoprOctβ2-R [6]): Phentolamine and gramine significantly reduced octopamine-induced receptor activation
